According to patent US8158636B2, “Compounds and methods for kinase modulation, and indications therefor” (Plexxikon Inc., priority 2008, dated 2012):

Experiments:
Format in all cases: biochemical
Kit = Kit (Homo sapiens, UniProt P10721); experiment: Kinase activity assay, Kit; details: Table 1j; read-out: activity toward kinase Kit, IC50
Source text: (§1) Assays for the activity of kinases, including, but not limited to, Fms, Kit, B-Raf, B-Raf V600E, c-Raf-1, and TrkA are known in the art, for example as described in US Patent Publication Number US20070032519 and U.S. patent application Ser. No. 11/473,347 (see also, PCT publication WO2007002433), the disclosures of which are hereby incorporated by reference with respect to such assays.

Kdr = Kdr (Homo sapiens, UniProt P35968); experiment: Kinase activity assay, Kdr; details: Table 1i; read-out: activity toward kinase Kdr, IC50
Sequence of Kdr (P35968 20-1356): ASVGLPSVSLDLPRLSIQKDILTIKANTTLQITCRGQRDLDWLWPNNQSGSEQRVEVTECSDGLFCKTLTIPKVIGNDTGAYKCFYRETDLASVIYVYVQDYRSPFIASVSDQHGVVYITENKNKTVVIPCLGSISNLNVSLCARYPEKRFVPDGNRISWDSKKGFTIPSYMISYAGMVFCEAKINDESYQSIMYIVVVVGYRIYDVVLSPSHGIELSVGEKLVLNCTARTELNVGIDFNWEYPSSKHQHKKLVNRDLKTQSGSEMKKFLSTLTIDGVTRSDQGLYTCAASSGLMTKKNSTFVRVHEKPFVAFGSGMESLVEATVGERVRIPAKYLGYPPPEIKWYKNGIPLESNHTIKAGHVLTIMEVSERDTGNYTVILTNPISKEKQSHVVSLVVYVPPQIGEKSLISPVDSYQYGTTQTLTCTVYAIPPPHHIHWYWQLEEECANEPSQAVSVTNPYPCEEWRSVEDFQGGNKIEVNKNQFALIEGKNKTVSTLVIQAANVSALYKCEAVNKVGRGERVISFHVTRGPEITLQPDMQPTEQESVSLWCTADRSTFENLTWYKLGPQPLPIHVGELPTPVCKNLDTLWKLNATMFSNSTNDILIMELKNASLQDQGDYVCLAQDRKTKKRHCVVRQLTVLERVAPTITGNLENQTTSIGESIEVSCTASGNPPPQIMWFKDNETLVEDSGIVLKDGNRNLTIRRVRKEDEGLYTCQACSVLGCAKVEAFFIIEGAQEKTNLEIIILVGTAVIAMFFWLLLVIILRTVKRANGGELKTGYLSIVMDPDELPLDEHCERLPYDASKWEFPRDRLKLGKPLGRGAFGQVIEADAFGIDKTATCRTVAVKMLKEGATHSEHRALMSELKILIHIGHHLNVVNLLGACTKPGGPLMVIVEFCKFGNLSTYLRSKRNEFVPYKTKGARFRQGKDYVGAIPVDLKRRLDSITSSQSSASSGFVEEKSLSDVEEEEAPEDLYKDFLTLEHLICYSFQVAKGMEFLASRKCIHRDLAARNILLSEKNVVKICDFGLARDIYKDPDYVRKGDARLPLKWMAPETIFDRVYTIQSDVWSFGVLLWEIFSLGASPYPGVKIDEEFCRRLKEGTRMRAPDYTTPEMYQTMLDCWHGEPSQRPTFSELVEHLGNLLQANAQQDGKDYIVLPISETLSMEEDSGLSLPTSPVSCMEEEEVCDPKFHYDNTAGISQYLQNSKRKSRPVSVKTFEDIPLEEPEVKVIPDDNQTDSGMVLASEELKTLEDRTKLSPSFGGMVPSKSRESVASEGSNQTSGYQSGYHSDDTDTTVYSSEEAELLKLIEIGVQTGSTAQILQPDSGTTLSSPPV
Source text: as §1

Fms = Fms (Homo sapiens, UniProt P07333); experiment: Kinase activity assay, Fms; details: Table 1h; read-out: activity toward kinase Fms, IC50
Sequence of Fms (P07333 20-972): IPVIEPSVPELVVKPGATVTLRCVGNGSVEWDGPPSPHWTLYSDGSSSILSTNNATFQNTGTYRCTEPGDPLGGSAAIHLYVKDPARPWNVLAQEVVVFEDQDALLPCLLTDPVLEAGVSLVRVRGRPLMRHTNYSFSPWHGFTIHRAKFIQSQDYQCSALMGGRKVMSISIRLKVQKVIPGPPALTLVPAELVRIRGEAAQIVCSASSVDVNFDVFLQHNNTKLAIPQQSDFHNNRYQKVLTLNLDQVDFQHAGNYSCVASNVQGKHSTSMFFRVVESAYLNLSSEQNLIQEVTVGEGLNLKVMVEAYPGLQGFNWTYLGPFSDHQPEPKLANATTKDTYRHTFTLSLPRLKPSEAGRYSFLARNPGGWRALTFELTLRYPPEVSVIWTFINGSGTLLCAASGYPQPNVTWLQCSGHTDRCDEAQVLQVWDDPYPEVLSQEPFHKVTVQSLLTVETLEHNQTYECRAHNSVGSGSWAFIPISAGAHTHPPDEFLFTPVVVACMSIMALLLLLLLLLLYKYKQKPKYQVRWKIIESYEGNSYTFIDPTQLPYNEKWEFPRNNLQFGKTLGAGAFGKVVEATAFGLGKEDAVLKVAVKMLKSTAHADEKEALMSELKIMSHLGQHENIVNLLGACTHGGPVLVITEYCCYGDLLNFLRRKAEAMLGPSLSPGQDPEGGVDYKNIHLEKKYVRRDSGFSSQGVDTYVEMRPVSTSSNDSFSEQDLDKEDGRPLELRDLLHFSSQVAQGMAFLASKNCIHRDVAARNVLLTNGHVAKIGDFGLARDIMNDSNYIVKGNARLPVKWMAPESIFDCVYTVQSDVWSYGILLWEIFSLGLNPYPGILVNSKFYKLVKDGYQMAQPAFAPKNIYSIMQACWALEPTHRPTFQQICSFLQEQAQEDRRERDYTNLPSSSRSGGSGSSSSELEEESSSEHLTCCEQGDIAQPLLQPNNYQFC
Source text: as §1

Sequence of Kit (P10721 26-976): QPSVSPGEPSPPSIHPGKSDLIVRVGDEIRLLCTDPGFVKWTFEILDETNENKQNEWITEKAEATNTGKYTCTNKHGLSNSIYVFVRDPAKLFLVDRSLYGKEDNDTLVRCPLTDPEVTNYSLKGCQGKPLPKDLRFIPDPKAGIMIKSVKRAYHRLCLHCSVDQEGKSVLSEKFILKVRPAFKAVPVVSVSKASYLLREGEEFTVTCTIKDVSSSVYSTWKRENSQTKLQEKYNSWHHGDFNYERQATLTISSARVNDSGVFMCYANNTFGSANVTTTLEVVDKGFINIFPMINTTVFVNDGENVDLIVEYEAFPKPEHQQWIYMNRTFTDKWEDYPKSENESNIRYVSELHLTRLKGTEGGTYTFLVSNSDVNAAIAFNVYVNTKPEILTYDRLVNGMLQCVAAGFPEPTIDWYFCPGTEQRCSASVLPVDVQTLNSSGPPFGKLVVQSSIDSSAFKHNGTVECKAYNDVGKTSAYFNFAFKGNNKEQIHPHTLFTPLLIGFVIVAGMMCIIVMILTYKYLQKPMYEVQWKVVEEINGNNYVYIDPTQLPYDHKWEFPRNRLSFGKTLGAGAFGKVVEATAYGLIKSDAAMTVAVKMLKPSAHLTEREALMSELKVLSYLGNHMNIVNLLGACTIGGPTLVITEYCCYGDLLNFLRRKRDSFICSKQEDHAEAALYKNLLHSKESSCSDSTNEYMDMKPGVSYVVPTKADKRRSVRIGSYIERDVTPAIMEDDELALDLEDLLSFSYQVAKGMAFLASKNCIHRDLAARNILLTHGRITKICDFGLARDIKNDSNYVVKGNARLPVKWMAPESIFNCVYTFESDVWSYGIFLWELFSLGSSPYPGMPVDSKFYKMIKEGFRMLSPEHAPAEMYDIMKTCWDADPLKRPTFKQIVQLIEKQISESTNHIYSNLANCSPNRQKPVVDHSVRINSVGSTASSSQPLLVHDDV

SMILES | IC50 (Kit) | IC50 (Kdr) | IC50 (Fms)
COc1ccc(CNc2ncc(Cc3c[nH]c4ncncc34)cc2C)cn1 [P-0012, (6-Methoxy-pyridin-3-ylmethyl)-[3-methyl-5-(7H-pyrrolo[2,3-d]pyrimidin-5-ylmethyl)-pyridin-2-yl]-amine] | ≤ 10 µM | ≤ 10 µM | ≤ 10 µM
COc1ccc(CNc2ncc(Cc3c[nH]c4ncncc34)cn2)cn1 [P-0015, (6-Methoxy-pyridin-3-ylmethyl)-[5-(7H-pyrrolo[2,3-d]pyrimidin-5-ylmethyl)-pyrimidin-2-yl]-amine] | ≤ 10 µM | ≤ 10 µM | ≤ 10 µM
COc1ccc(CNc2ncc(Cc3c[nH]c4ncncc34)cc2F)cn1 [P-0017, [3-Fluoro-5-(7H-pyrrolo[2,3-d]pyrimidin-5-ylmethyl)-pyridin-2-yl]-(6-methoxy-pyridin-3-ylmethyl)-amine] | ≤ 10 µM | ≤ 10 µM | ≤ 10 µM
Fc1nc(NCc2cnccc2C(F)(F)F)ccc1Cc1c[nH]c2ncncc12 [P-0018, [6-Fluoro-5-(7H-pyrrolo[2,3-d]pyrimidin-5-ylmethyl)-pyridin-2-yl]-(4-trifluoromethyl-pyridin-3-ylmethyl)-amine] | ≤ 10 µM | ≤ 10 µM | ≤ 10 µM
COc1ccc(CNc2ccc(C(=O)c3c[nH]c4ncncc34)c(C)n2)cn1 [P-0019, {6-[(6-Methoxy-pyridin-3-ylmethyl)-amino]-2-methyl-pyridin-3-yl}-(7H-pyrrolo[2,3-d]pyrimidin-5-yl)-methanone] |  |  | ≤ 10 µM
Cc1cc(CNc2ccc(Cc3c[nH]c4ncncc34)c(F)n2)ccn1 [P-0020, [6-Fluoro-5-(7H-pyrrolo[2,3-d]pyrimidin-5-ylmethyl)-pyridin-2-yl]-(2-methyl-pyridin-4-ylmethyl)-amine] |  | ≤ 10 µM | ≤ 10 µM
COc1cc(CNc2ccc(Cc3c[nH]c4ncncc34)c(F)n2)ccn1 [P-0023, [6-Fluoro-5-(7H-pyrrolo[2,3-d]pyrimidin-5-ylmethyl)-pyridin-2-yl]-(2-methoxy-pyridin-4-ylmethyl)-amine] | ≤ 10 µM | ≤ 10 µM | ≤ 10 µM
COc1cc(CNc2ncc(Cc3c[nH]c4ncncc34)cn2)c(F)cn1 [P-0025, (5-Fluoro-2-methoxy-pyridin-4-ylmethyl)-[5-(7H-pyrrolo[2,3-d]pyrimidin-5-ylmethyl)-pyrimidin-2-yl]-amine] |  | ≤ 10 µM | ≤ 10 µM
COc1ncccc1CNc1ccc(Cc2c[nH]c3ncncc23)c(F)n1 [P-0026, [6-Fluoro-5-(7H-pyrrolo[2,3-d]pyrimidin-5-ylmethyl)-pyridin-2-yl]-(2-methoxy-pyridin-3-ylmethyl)-amine] | ≤ 10 µM | ≤ 10 µM | ≤ 10 µM
Fc1nc(NCc2ccc(Cl)cn2)ccc1Cc1c[nH]c2ncncc12 [P-0027, (5-Chloro-pyridin-2-ylmethyl)-[6-fluoro-5-(7H-pyrrolo[2,3-d]pyrimidin-5-ylmethyl)-pyridin-2-yl]-amine] | ≤ 10 µM | ≤ 10 µM | ≤ 10 µM
c1ccc(CNc2ncc(Cc3c[nH]c4ncncc34)cn2)nc1 [P-0028, Pyridin-2-ylmethyl-[5-(7H-pyrrolo[2,3-d]pyrimidin-5-ylmethyl)-pyrimidin-2-yl]-amine] |  |  | ≤ 10 µM
Clc1ccc(CNc2ncc(Cc3c[nH]c4ncncc34)cn2)cn1 [P-0029, (6-Chloro-pyridin-3-ylmethyl)-[5-(7H-pyrrolo[2,3-d]pyrimidin-5-ylmethyl)-pyrimidin-2-yl]-amine] | ≤ 10 µM | ≤ 10 µM | ≤ 10 µM
FC(F)(F)c1ccc(CNc2ncc(Cc3c[nH]c4ncncc34)cn2)cn1 [P-0030, [5-(7H-Pyrrolo[2,3-d]pyrimidin-5-ylmethyl)-pyrimidin-2-yl]-(6-trifluoromethyl-pyridin-3-ylmethyl)-amine] | ≤ 10 µM | ≤ 10 µM | ≤ 10 µM
c1cc(CNc2ncc(Cc3c[nH]c4ncncc34)cn2)nc(N2CCOCC2)c1 [P-0031, (6-Morpholin-4-yl-pyridin-2-ylmethyl)-[5-(7H-pyrrolo[2,3-d]pyrimidin-5-ylmethyl)-pyrimidin-2-yl]-amine] | ≤ 10 µM | ≤ 10 µM | ≤ 10 µM
c1cc(CNc2ncc(Cc3c[nH]c4ncncc34)cn2)nc(N2CCCC2)c1 [P-0032, (6-Pyrrolidin-1-yl-pyridin-2-ylmethyl)-[5-(7H-pyrrolo[2,3-d]pyrimidin-5-ylmethyl)-pyrimidin-2-yl]-amine] | ≤ 10 µM | ≤ 10 µM | ≤ 10 µM
CCc1ccc(CNc2ncc(Cc3c[nH]c4ncncc34)cn2)nc1 [P-0033, (5-Ethyl-pyridin-2-ylmethyl)-[5-(7H-pyrrolo[2,3-d]pyrimidin-5-ylmethyl)-pyrimidin-2-yl]-amine] | ≤ 10 µM | ≤ 10 µM | ≤ 10 µM
Cc1cnccc1CNc1ncc(Cc2c[nH]c3ncncc23)cn1 [P-0034, (3-Methyl-pyridin-4-ylmethyl)-[5-(7H-pyrrolo[2,3-d]pyrimidin-5-ylmethyl)-pyrimidin-2-yl]-amine] |  |  | ≤ 10 µM

SMILES | IC50 (Kit) | IC50 (Kdr) | IC50 (Fms)
Cc1cc(CNc2ncc(Cc3c[nH]c4ncncc34)cn2)ccn1 [P-0035, (2-Methyl-pyridin-4-ylmethyl)-[5-(7H-pyrrolo[2,3-d]pyrimidin-5-ylmethyl)-pyrimidin-2-yl]-amine] |  |  | ≤ 10 µM
c1cc(CNc2ncc(Cc3c[nH]c4ncncc34)cn2)cc(N2CCOCC2)n1 [P-0036, (2-Morpholin-4-yl-pyridin-4-ylmethyl)-[5-(7H-pyrrolo[2,3-d]pyrimidin-5-ylmethyl)-pyrimidin-2-yl]-amine] | ≤ 10 µM | ≤ 10 µM | ≤ 10 µM
CNc1ncc(CNc2ccc(Cc3c[nH]c4ncncc34)c(F)n2)cn1 [P-0042, (5-{[6-Fluoro-5-(7H-pyrrolo[2,3-d]pyrimidin-5-ylmethyl)-pyridin-2-ylamino]-methyl}-pyrimidin-2-yl)-methyl-amine] |  |  | ≤ 10 µM
Fc1nc(NCc2ccncc2Br)ccc1Cc1c[nH]c2ncncc12 [P-0046, (3-Bromo-pyridin-4-ylmethyl)-[6-fluoro-5-(7H-pyrrolo[2,3-d]pyrimidin-5-ylmethyl)-pyridin-2-yl]-amine] |  | ≤ 10 µM | ≤ 10 µM
Fc1nc(NCc2ccncc2Cl)ccc1Cc1c[nH]c2ncncc12 [P-0047, (3-Chloro-pyridin-4-ylmethyl)-[6-fluoro-5-(7H-pyrrolo[2,3-d]pyrimidin-5-ylmethyl)-pyridin-2-yl]-amine] |  | ≤ 10 µM | ≤ 10 µM
Cc1ncc(CNc2ccc(Cc3c[nH]c4ncncc34)c(F)n2)cn1 [P-0048, [6-Fluoro-5-(7H-pyrrolo[2,3-d]pyrimidin-5-ylmethyl)-pyridin-2-yl]-(2-methyl-pyrimidin-5-ylmethyl)-amine] |  |  | ≤ 10 µM
Fc1cnccc1CNc1ccc(Cc2c[nH]c3ncncc23)c(F)n1 [P-0049, (3-Fluoro-pyridin-4-ylmethyl)-[6-fluoro-5-(7H-pyrrolo[2,3-d]pyrimidin-5-ylmethyl)-pyridin-2-yl]-amine] |  |  | ≤ 10 µM
Cc1cnccc1CNc1ccc(Cc2c[nH]c3ncncc23)c(F)n1 [P-0055, [6-Fluoro-5-(7H-pyrrolo[2,3-d]pyrimidin-5-ylmethyl)-pyridin-2-yl]-(3-methyl-pyridin-4-ylmethyl)-amine] |  |  | ≤ 10 µM
COc1ccncc1CNc1ccc(Cc2c[nH]c3ncncc23)c(F)n1 [P-0056, [6-Fluoro-5-(7H-pyrrolo[2,3-d]pyrimidin-5-ylmethyl)-pyridin-2-yl]-(4-methoxy-pyridin-3-ylmethyl)-amine] |  |  | ≤ 10 µM
Cc1ccnc(CNc2ccc(Cc3c[nH]c4ncncc34)c(F)n2)c1 [P-0058, [6-Fluoro-5-(7H-pyrrolo[2,3-d]pyrimidin-5-ylmethyl)-pyridin-2-yl]-(4-methyl-pyridin-2-ylmethyl)-amine] |  | ≤ 10 µM | ≤ 10 µM
Fc1nc(NCc2ccnc(N3CCCC3)c2)ccc1Cc1c[nH]c2ncncc12 [P-0059, [6-Fluoro-5-(7H-pyrrolo[2,3-d]pyrimidin-5-ylmethyl)-pyridin-2-yl]-(2-pyrrolidin-1-yl-pyridin-4-ylmethyl)-amine] |  | ≤ 10 µM | ≤ 10 µM
CNc1ncccc1CNc1ccc(Cc2c[nH]c3ncncc23)c(F)n1 [P-0066, [6-Fluoro-5-(7H-pyrrolo[2,3-d]pyrimidin-5-ylmethyl)-pyridin-2-yl]-(2-methylamino-pyridin-3-ylmethyl)-amine] |  | ≤ 10 µM | ≤ 10 µM
Fc1ncccc1CNc1ccc(Cc2c[nH]c3ncncc23)c(F)n1 [P-0068, (2-Fluoro-pyridin-3-ylmethyl)-[6-fluoro-5-(7H-pyrrolo[2,3-d]pyrimidin-5-ylmethyl)-pyridin-2-yl]-amine] |  | ≤ 10 µM | ≤ 10 µM
Fc1cc(CNc2ccc(Cc3c[nH]c4ncncc34)c(F)n2)ccn1 [P-0074, (2-Fluoro-pyridin-4-ylmethyl)-[6-fluoro-5-(7H-pyrrolo[2,3-d]pyrimidin-5-ylmethyl)-pyridin-2-yl]-amine] |  | ≤ 10 µM | ≤ 10 µM
COCCc1ncc(CNc2ccc(Cc3c[nH]c4ncncc34)c(F)n2)cn1 [P-0080, [6-Fluoro-5-(7H-pyrrolo[2,3-d]pyrimidin-5-ylmethyl)-pyridin-2-yl]-[2-(2-methoxy-ethyl)-pyrimidin-5-ylmethyl]-amine] |  |  | ≤ 10 µM
COc1cc(F)cc(CNc2ccc(Cc3c[nH]c4ncncc34)c(F)n2)c1 [P-0083, (3-Fluoro-5-methoxy-benzyl)-[6-fluoro-5-(7H-pyrrolo[2,3-d]pyrimidin-5-ylmethyl)-pyridin-2-yl]-amine] | ≤ 10 µM | ≤ 10 µM | ≤ 10 µM
COc1ncccc1CNc1ncc(Cc2c[nH]c3ncncc23)cn1 [P-0084, (2-Methoxy-pyridin-3-ylmethyl)-[5-(7H-pyrrolo[2,3-d]pyrimidin-5-ylmethyl)-pyrimidin-2-yl]-amine] | ≤ 10 µM |  | ≤ 10 µM
